According to PubChem BioAssay AID1963830 (Molecular Pharmacology Branch, DTP, NCI, 2024):

Test system: 922993-354-T-J3-PDC complex spheroid viability
Assay: Anticancer human tumor 922993-354-T-J3-PDC patient-derived endometrial carcinoma cell line growth inhibition [POLQ]
Conditions: for IC50: curve of first compound; for viability, T/C: stronger effect = lower value
How it was run: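 Growth inhibition in 3D: complex spheroids (tumor PDC, HUVEC, MSC) treated with POLQ inhibitor combinations; where Cmax unknown, highest tested concentration 10 microM, except SN-38 at 1 microM.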

[1] = second compound 0.0316 µM, first compound 0.00316 µM
[2] = second compound 0.0316 µM, first compound 0.01 µM
[3] = second compound 0.0316 µM, first compound 0.0316 µM
[4] = second compound 0.0316 µM, first compound 0.1 µM
[5] = second compound 0.0316 µM, first compound 0.316 µM
[6] = second compound 0.0316 µM, first compound 1 µM
[7] = second compound 0.1 µM, first compound 0.00316 µM
[8] = second compound 0.1 µM, first compound 0.01 µM
[9] = second compound 0.1 µM, first compound 0.0316 µM
[10] = second compound 0.1 µM, first compound 0.1 µM
[11] = second compound 0.1 µM, first compound 0.316 µM
[12] = second compound 0.1 µM, first compound 1 µM
[13] = second compound 0.316 µM, first compound 0.00316 µM
[14] = second compound 0.316 µM, first compound 0.01 µM
[15] = second compound 0.316 µM, first compound 0.0316 µM
[16] = second compound 0.316 µM, first compound 0.1 µM
[17] = second compound 0.316 µM, first compound 0.316 µM
[18] = second compound 0.316 µM, first compound 1 µM
[19] = second compound 1 µM, first compound 0.00316 µM
[20] = second compound 1 µM, first compound 0.01 µM
[21] = second compound 1 µM, first compound 0.0316 µM
[22] = second compound 1 µM, first compound 0.1 µM
[23] = second compound 1 µM, first compound 0.316 µM
[24] = second compound 1 µM, first compound 1 µM
[25] = second compound 3.16 µM, first compound 0.00316 µM
[26] = second compound 3.16 µM, first compound 0.01 µM
[27] = second compound 3.16 µM, first compound 0.0316 µM
[28] = second compound 3.16 µM, first compound 0.1 µM
[29] = second compound 3.16 µM, first compound 0.316 µM
[30] = second compound 3.16 µM, first compound 1 µM
[31] = second compound 10 µM, first compound 0.00316 µM
[32] = second compound 10 µM, first compound 0.01 µM
[33] = second compound 10 µM, first compound 0.0316 µM
[34] = second compound 10 µM, first compound 0.1 µM
[35] = second compound 10 µM, first compound 0.316 µM
[36] = second compound 10 µM, first compound 1 µM
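Also: spheroids exposed to the agents for one week.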
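For viability, T/C in this document: 100% = DMSO vehicle control wells.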

## COc1cccc(OCCCN)c1-c1cc(Nc2cnc(C#N)cn2)n[nH]1 + COC1C(OC(N)=O)C(O)C(Oc2ccc3c(O)c(NC(=O)c4ccc(O)c(CC=C(C)C)c4)c(=O)oc3c2C)OC1(C)C
Second compound 0.0316 µM
  IC50: 204 nM
Second compound 0.1 µM
  IC50: 187 nM
Second compound 0.316 µM
  IC50: 175 nM
Second compound 1 µM
  IC50: 159 nM
Second compound 3.16 µM
  IC50: 159 nM
Second compound 10 µM
  IC50: 160 nM
[1]
  viability, T/C: 92.4%
[2]
  viability, T/C: 94%
[3]
  viability, T/C: 94.3%
[4]
  viability, T/C: 91%
[5]
  viability, T/C: 24.6%
[6]
  viability, T/C: 9.14%
[7]
  viability, T/C: 99.6%
[8]
  viability, T/C: 96.5%
[9]
  viability, T/C: 102%
[10]
  viability, T/C: 87.2%
[11]
  viability, T/C: 18.6%
[12]
  viability, T/C: 8.7%
[13]
  viability, T/C: 100%
[14]
  viability, T/C: 92.2%
[15]
  viability, T/C: 97.2%
[16]
  viability, T/C: 84.6%
[17]
  viability, T/C: 13.6%
[18]
  viability, T/C: 9.43%
[19]
  viability, T/C: 108%
[20]
  viability, T/C: 94%
[21]
  viability, T/C: 78.9%
[22]
  viability, T/C: 75.3%
[23]
  viability, T/C: 12.9%
[24]
  viability, T/C: 8.85%
[25]
  viability, T/C: 103%
[26]
  viability, T/C: 110%
[27]
  viability, T/C: 95.9%
[28]
  viability, T/C: 70%
[29]
  viability, T/C: 21.3%
[30]
  viability, T/C: 9.8%
[31]
  viability, T/C: 90.1%
[32]
  viability, T/C: 69.7%
[33]
  viability, T/C: 80.1%
[34]
  viability, T/C: 73.4%
[35]
  viability, T/C: 16.1%
[36]
  viability, T/C: 8.31%

## Cn1ncnc1[C@H]1c2n[nH]c(=O)c3cc(F)cc(c23)N[C@@H]1c1ccc(F)cc1 + COC1C(OC(N)=O)C(O)C(Oc2ccc3c(O)c(NC(=O)c4ccc(O)c(CC=C(C)C)c4)c(=O)oc3c2C)OC1(C)C
Second compound 0.0316 µM
  IC50: > 100 nM
Second compound 0.1 µM
  IC50: > 100 nM
Second compound 0.316 µM
  IC50: > 100 nM
Second compound 1 µM
  IC50: > 100 nM
Second compound 3.16 µM
  IC50: > 100 nM
Second compound 10 µM
  IC50: > 100 nM
Second compound 0.0316 µM, first compound 0.000316 µM
  viability, T/C: 109%
Second compound 0.0316 µM, first compound 0.001 µM
  viability, T/C: 93.7%
[1]
  viability, T/C: 98.5%
[2]
  viability, T/C: 104%
[3]
  viability, T/C: 91.8%
[4]
  viability, T/C: 74%
Second compound 0.1 µM, first compound 0.000316 µM
  viability, T/C: 107%
Second compound 0.1 µM, first compound 0.001 µM
  viability, T/C: 102%
[7]
  viability, T/C: 105%
[8]
  viability, T/C: 99.9%
[9]
  viability, T/C: 96.8%
[10]
  viability, T/C: 79.8%
Second compound 0.316 µM, first compound 0.000316 µM
  viability, T/C: 108%
Second compound 0.316 µM, first compound 0.001 µM
  viability, T/C: 107%
[13]
  viability, T/C: 115%
[14]
  viability, T/C: 98%
[15]
  viability, T/C: 96.6%
[16]
  viability, T/C: 86.1%
Second compound 1 µM, first compound 0.000316 µM
  viability, T/C: 105%
Second compound 1 µM, first compound 0.001 µM
  viability, T/C: 98.6%
[19]
  viability, T/C: 91.7%
[20]
  viability, T/C: 105%
[21]
  viability, T/C: 94.6%
[22]
  viability, T/C: 84.5%
Second compound 3.16 µM, first compound 0.000316 µM
  viability, T/C: 93.7%
Second compound 3.16 µM, first compound 0.001 µM
  viability, T/C: 89.9%
[25]
  viability, T/C: 89.6%
[26]
  viability, T/C: 86.3%
[27]
  viability, T/C: 102%
[28]
  viability, T/C: 79.4%
Second compound 10 µM, first compound 0.000316 µM
  viability, T/C: 88.6%
Second compound 10 µM, first compound 0.001 µM
  viability, T/C: 75.6%
[31]
  viability, T/C: 94.7%
[32]
  viability, T/C: 85.7%
[33]
  viability, T/C: 87.1%
[34]
  viability, T/C: 70.7%

## O=C(c1cc(Cc2n[nH]c(=O)c3ccccc23)ccc1F)N1CCN(C(=O)C2CC2)CC1 + COC1C(OC(N)=O)C(O)C(Oc2ccc3c(O)c(NC(=O)c4ccc(O)c(CC=C(C)C)c4)c(=O)oc3c2C)OC1(C)C
Second compound 0.0316 µM
  IC50: > 10000 nM
Second compound 0.1 µM
  IC50: > 10000 nM
Second compound 0.316 µM
  IC50: > 10000 nM
Second compound 1 µM
  IC50: > 10000 nM
Second compound 3.16 µM
  IC50: > 10000 nM
Second compound 10 µM
  IC50: > 10000 nM
[3]
  viability, T/C: 110%
[4]
  viability, T/C: 98%
[5]
  viability, T/C: 101%
[6]
  viability, T/C: 102%
Second compound 0.0316 µM, first compound 3.16 µM
  viability, T/C: 103%
Second compound 0.0316 µM, first compound 10 µM
  viability, T/C: 86.8%
[9]
  viability, T/C: 115%
[10]
  viability, T/C: 95%
[11]
  viability, T/C: 106%
[12]
  viability, T/C: 104%
Second compound 0.1 µM, first compound 3.16 µM
  viability, T/C: 89.8%
Second compound 0.1 µM, first compound 10 µM
  viability, T/C: 98.5%
[15]
  viability, T/C: 94.6%
[16]
  viability, T/C: 107%
[17]
  viability, T/C: 82.9%
[18]
  viability, T/C: 83.2%
Second compound 0.316 µM, first compound 3.16 µM
  viability, T/C: 93.5%
Second compound 0.316 µM, first compound 10 µM
  viability, T/C: 97.6%
[21]
  viability, T/C: 95.2%
[22]
  viability, T/C: 96.7%
[23]
  viability, T/C: 86.4%
[24]
  viability, T/C: 98%
Second compound 1 µM, first compound 3.16 µM
  viability, T/C: 98.1%
Second compound 1 µM, first compound 10 µM
  viability, T/C: 90.2%
[27]
  viability, T/C: 90%
[28]
  viability, T/C: 95.7%
[29]
  viability, T/C: 90.6%
[30]
  viability, T/C: 87%
Second compound 3.16 µM, first compound 3.16 µM
  viability, T/C: 95.7%
Second compound 3.16 µM, first compound 10 µM
  viability, T/C: 85.8%
[33]
  viability, T/C: 88.3%
[34]
  viability, T/C: 84%
[35]
  viability, T/C: 87.8%
[36]
  viability, T/C: 68.5%
Second compound 10 µM, first compound 3.16 µM
  viability, T/C: 87.5%
Second compound 10 µM, first compound 10 µM
  viability, T/C: 68.5%
